Data reported in US7498403B2, “Peptides capable of binding to titanium silver silicone” (Japan Science and Technology Agency, priority 2003, dated 2009).

Key:
[1] = Binding ability of phage clones to titanium particles (eluted phage titer / added phage titer); details: peptide expressed on phage clone; for binding ability to titanium: titanium particles, mutants compared with SEQ ID NO: 3 clone
Experimental: 10 mg of titanium particle with a particle diameter of […] (Sumitomo Titanium Corporation, Hyogo) was put into a 1.5 ml-Eppendorf tube, and washed twice with a solution of 500 μl of 50 mM tris (hydroxymethyl) aminomethane (herein after referred to as tris (Kishida Chemical (Osaka)) HCl buffer pH 7.5; 150 mM of sodium chloride (Wako Pure Chemicals, Osaka) solution (herein after referred to as TBS) supplemented with 0.1% bovine serum albumin (herein after referred to as BSA), 0.1% Polyoxyethylenesorbitan monolaurate (herein after referred as Tween-20 (Sigma, St. Louis)). Washing of titanium particles was performed by centrifuging with a desktop centrifuge H1300 (Kokusan) at 13,000 rpm, 5 sec, to precipitate titanium particles and to remove supernatant. After washing, in order to block the non-specific adsorption of the phage, the mixture was stirred by rotating with 1 ml of the same solution for 30 min at room temperature by using a rotary shaker rotator RT-50 (Taitec).
By centrifuging with a desktop centrifuge H1300 (Kokusan) at 13,000 rpm, 5 sec, titanium particles were precipitated, the supernatant was removed, and then 1 ml TBS containing peptide-expressing phage library, D12 library expressing linear random peptide of 12 residues (New England Biolabs, Beverly), 17×10^11 plaque-forming unit (herein after referred to as pfu), or C7C library expressing cyclic randam peptide of 7 residues (New Engand Biolabs) 2.0×10^11 pfu, 0.1% BSA and 0.1% Tween-20 solution were added, and stirred by rotating for 2 hours, at room temperature with a rotary shaker, rotator RT-50.
By centrifuging with a desktop centrifuge H1300 (Kokusan) at 13,000 rpm, 5 sec, the supernatant was removed, and the resultant was washed 10 times with 1 ml of TBS, 0.1% Tween-20 solution. Washing was performed by centrifuging at 8000×g, 5 sec, by precipitating titanium particles. After removing washing solution, 1 ml of 0.2 M glycine (Wako Pure Chemicals), HCl buffer pH 2.2 were added and stirred by rotating for 10 min at room temperature with rotator RT-50 (Taitec) to elute phage bound to titanium. Titanium was precipitated by centrifugation, and the supernatant was moved to a separate 1.5 ml-Eppendorf tube. Then, 150 μl of 1M tris/HCl buffer pH 9.1 was added to neutralize, and phage titer in the solution (plaque forming ability per unit solution) was measured according to a common procedure (Molecular Cloning Third Edition, Cold Spring Harbor Laboratory Press).
(§1) By using the phage clone obtained in Example 1, the binding ability to titanium was evaluated by the following experiment. The same method as for panning operation shown in Example 1 was performed. The difference between Example 1 is that the stirring time of titanium and phage clone was 1 hour; the Tween 20 concentration and BSA concentration in each solution was 0.5%, and 1%, respectively, and that the titer of the phage added was 10^9 pfu for clone from D12, and 10^11 pfu for clone from C7C.
For clone strongly bound particularly with titanium (SEQ ID NO: 3) in Example 2, point mutants substituted by alanine having only one methyl group in the side chain was prepared and the change of binding ability to titanium was examined for each mutant phage. As point mutant comprises alanine in the 6th position in the expressed sequence, mutants were prepared for all the residues except the 6th residue. The preparation of point mutants was performed by Kunkel method (Molecular Cloning Third Edition, Cold Spring Harbor Laboratory Press). Synthetic DNAs used for preparing point mutants are shown in FIG. 8 (SEQ ID NOs: 40 to 50). The introduction of point mutation was confirmed by determining the DNA sequence of phage DNA. DNA sequencing was performed in the same manner as Example 1. The binding ability to titanium of the obtained point mutants was measured by the method shown in Example 2, by adjusting the phage amount added to 10^10 pfu.
The deletion mutants were prepared by the method shown schematically in FIG. 10. […]

[2] = Binding ability of phage clone to copper particles; details: peptide expressed on phage clone
Experimental: as §1
(§2) To investigate the binding specificity of phage clone expressing a peptide comprising an amino acid sequence shown in SEQ ID NO: 3 to metal material, to 10 mg each of gold (purity>99.9%, particle diameter<150 μm)/silver (purity>99.9%, particle diameter<75 μm)/copper (purity>99%, particle diameter 75-150 μm)/platinum (purity>99.9%, particle diameter<75 μm)/iron (purity>99.9%, particle diameter<150 μm)/tin (purity>99.9%, particle diameter<150 μm)/zinc (purity>99.9%, particle diameter<150 μm)/chrome (purity>98%, particle diameter>10 μm)/cobalt (purity>99%, particle diameter<75 μm)/silicon (purity>99%, particle diameter<150 μm) (Kojundo Chemical Lab., Saitama), the binding ability to each metal was examined by the same method of Example 2, by using 10^10 pfu/ml of phage clone expressing a peptide comprising an amino acid sequence shown in SEQ ID NO: 3.

[3] = QCM-D300 quartz crystal microbalance analysis of phage binding to titanium sensor; details: phage clone; frequency and dissipation (viscoelasticity), sensor blocked with BSA
Experimental: As for the clone strongly bound particularly with titanium (expressing peptide of SEQ ID NO: 3), the binding form of titanium surface and phage was examined, by measuring with QCM-D300 (Q-sense AB, Goeteborg), which is a device for quantification of interaction with a quartz crystal microbalance.
For a quartz crystal microbalance, titanium sensor being a genuine part of QCM-D300 was used. The temperature was fixed at 24.99° C., and the actual measurement value was from around 24.68° C. to 24.70° C. It was measured in a condition of blocking the sensor with BSA, and in a condition without blocking. When blocking with BSA is not performed, after measuring the standard value with TBS, the phage solution adjusted so that the phage titer becomes 10^10 pfu/ml was measured continuously. When blocking with BSA is performed, after measuring the standard value with TBS, blocking was conducted by incubating for about 10 min with TBS, 0.1% BSA, and after washing again migrated BSA with TBS, the phage solution adjusted so that the phage titer becomes 10^11 pfu/ml was measured continuously.
From the results shown in FIG. 6, it is clear that the phage clone is bound to the sensor from the change of frequency, under the absence of BSA. […]

[4] = Adsorption of synthetic peptide to titanium particles, Langmuir adsorption isotherm fitting; assay type: binding; details: Ti
Experimental: (§3) In order to confirm whether the synthetic peptide comprising an amino acid sequence shown in SEQ ID NO: 3 binds to titanium surface, the binding ability of the synthetic peptides comprising an amino acid sequence shown in SEQ ID NO: 3 to titanium particles was examined. 10 mg of titanium particles used in Example 1 was put into an Eppendorf tube, washed twice with 50 mM HEPES-NaOH, 150 mM NaCl. Then, 100 μl of 5 to 40 μM of the synthetic peptides of SEQ ID NO: 3, and the mixture was stirred by rotating by using a rotary shaker rotator RT-50 (Taitec) at room temperature for 2 hours. By centrifuging with a desk-top centrifuge H-1300 (Kokusan, Tokyo), at 13,000 rpm, for 5 sec., the supernatant was removed, mixed with fluoro aldehyde (Pias Rockford, Ill.), and by using a spectrofluorometer (Nippon Bunko, Tokyo), at excitation wave length 342 nm, fluorescent wave length 437 nm, the binding level to titanium was calculated from the peptide concentration of the supernatant. The relative surface area of titanium was calculated from the density and mean particle diameter. Further, the binding ability of the synthetic peptide comprising an amino acid sequence shown in SEQ ID NO: 2 to silicone/tin used in Example 13 was examined by the same method. […]

[5] = Binding ability of phage clone to iron particles; details: peptide expressed on phage clone
Experimental: as §1, §2

[6] = Binding ability of phage clones to silver particles; details: peptide expressed on phage clone
Experimental: as §1, §2
(§4) In order to confirm whether the binding form to silver or silicone, and the sequence specificity of the phage clone expressing a peptide comprising an amino acid sequence shown in SEQ ID NO: 3 is similar as in the case of binding to titanium, the binding ability of the alanine substituted-mutant phage of SEQ ID NOs: 4, 5, 7, 8 used in Example 4 to silver/silicon was examined by the method shown in Example 2.

[7] = Binding ability of phage clones to silicon particles; details: peptide expressed on phage clone
Experimental: as §1, §2, §4

[8] = Adsorption of synthetic peptide to silicon particles, Langmuir adsorption isotherm fitting; assay type: binding; details: Si
Experimental: as §3

Substance: RKLPDA [SEQ ID NO: 1]
- binding ability to titanium [1]: not affected by the deletion

Substance: RKLPDAPGMHTW [SEQ ID NO: 3, tested on phage clone and as synthetic peptide]
- binding to copper [2]: below the detection limit
- binding ability to titanium treated with hydrogen peroxide ([1]; titanium particles treated with 3% hydrogen peroxide for 1 hour): increased
- binding ability to titanium [1]: much higher
- binding form of phage to titanium surface [3]: bound perpendicularly to titanium surface
- Kd ([4]; synthetic peptide 5 to 40 μM, 50 mM HEPES-NaOH, 150 mM NaCl, room temperature, 2 hours, read-out: Kd (dissociation constant)): 11.1 ± 2.8 µM
- qm (maximum adsorption level) ([4]; synthetic peptide, Langmuir fitting): 2.5 ± 0.3 × 10^−6 mole/m^2
- binding to iron [5]: below the detection limit

Substance: SEQ ID NO: 15: Ala is added/inserted to N terminal of e-3-2-3 (ARKLPDAPGMHTW)
- binding ability to titanium [1]: increase of the binding ability

Substance: SEQ ID NO: 7: e3-2-3 mutant, 4th amino acid residue substituted by Ala (RKLADAPGMHTW)
- binding ability to silver [6]: same trend as for titanium
- binding ability to titanium [1]: the most significantly impaired
- binding ability to silicon [7]: same trend as for titanium

Substance: SEQ ID NO: 8: e3-2-3 mutant, 5th amino acid residue substituted by Ala (RKLPAAPGMHTW)
- binding ability to silver [6]: same trend as for titanium
- binding ability to titanium [1]: significantly impaired
- binding ability to silicon [7]: same trend as for titanium

Substance: SEQ ID NO: 4: e3-2-3 mutant, 1st amino acid residue substituted by Ala (AKLPDAPGMHTW)
- binding ability to silver [6]: same trend as for titanium
- binding ability to titanium [1]: significantly impaired
- binding ability to silicon [7]: same trend as for titanium

Substance: RALPDA [SEQ ID NO: 2]
- binding ability to silver [6]: binds
- qm (maximum adsorption level) [8]: 2.1 ± 0.3 × 10^−7 mole/m^2
- Kd ([8]; read-out: Kd (dissociation constant)): 13.2 ± 4 µM
- binding ability to titanium [1]: binds
- binding ability to silicon [7]: binds

Substance: SEQ ID NO: 5: e3-2-3 mutant, 2nd amino acid residue substituted by Ala (RALPDAPGMHTW)
- binding ability to silver [6]: same trend as for titanium
- binding ability to titanium [1]: increased
- binding ability to silicon [7]: same trend as for titanium
